Reference: patent US20090281099A1, “SUBSTITUTED PYRAZINONE DERIVATIVES FOR USE AS A MEDICINE” (priority 2006, published 2009)
Like-named read-outs stand apart in the source and are kept apart here.

What was measured:
[1] = target: T1, hα2A receptor (Homo sapiens, UniProt P08913); assay: Radioligand binding experiment for hα2A receptor ([3H]-raulwolscine, CHO cell membranes); details: read-out: h-α2A pIC50 (converted)
T1 construct: expressed in transfected cells
T1 sequence (P08913 1-465): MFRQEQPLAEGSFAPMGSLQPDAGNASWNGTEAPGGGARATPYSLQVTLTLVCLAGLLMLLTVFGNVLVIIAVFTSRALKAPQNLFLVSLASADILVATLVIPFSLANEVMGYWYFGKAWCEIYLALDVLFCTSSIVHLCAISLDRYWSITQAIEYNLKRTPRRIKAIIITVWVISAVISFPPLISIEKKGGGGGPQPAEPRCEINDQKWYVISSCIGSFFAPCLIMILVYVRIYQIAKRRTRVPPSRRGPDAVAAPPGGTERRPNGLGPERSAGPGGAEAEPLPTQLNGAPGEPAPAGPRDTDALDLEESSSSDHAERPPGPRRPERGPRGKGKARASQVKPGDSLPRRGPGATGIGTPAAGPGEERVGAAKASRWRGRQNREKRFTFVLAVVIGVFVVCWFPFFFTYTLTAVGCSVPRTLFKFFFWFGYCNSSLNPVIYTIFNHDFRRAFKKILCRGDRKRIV

[2] = target: T2, hα2C receptor (Homo sapiens, UniProt P18825); assay: Radioligand binding experiment for α2C-adrenoceptor ([3H]-raulwolscine, CHO cell membranes); details: read-out: h-α2C pIC50 (converted)
T2 construct: expressed in transfected cells
T2 sequence (P18825 1-462): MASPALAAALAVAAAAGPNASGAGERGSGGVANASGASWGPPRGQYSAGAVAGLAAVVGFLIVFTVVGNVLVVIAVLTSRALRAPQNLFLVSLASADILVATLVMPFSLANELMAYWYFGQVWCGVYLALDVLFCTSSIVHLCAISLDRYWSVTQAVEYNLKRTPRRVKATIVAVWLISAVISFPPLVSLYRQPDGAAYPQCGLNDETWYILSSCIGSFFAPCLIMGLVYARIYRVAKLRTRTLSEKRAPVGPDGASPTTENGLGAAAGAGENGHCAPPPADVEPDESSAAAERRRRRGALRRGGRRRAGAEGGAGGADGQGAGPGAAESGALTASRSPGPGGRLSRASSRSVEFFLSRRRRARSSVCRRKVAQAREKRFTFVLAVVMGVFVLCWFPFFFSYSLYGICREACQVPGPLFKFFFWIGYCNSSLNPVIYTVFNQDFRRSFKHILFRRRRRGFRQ

[3] = target: T3, 5HT-Transporter (Homo sapiens, UniProt P31645); assay: Binding experiment for the 5HT-transporter ([3H]paroxetine, human platelet membranes); details: [3H]paroxetine 0.5 nM, read-out: h-5HTT pIC50 (converted)
T3 construct: Human platelet membranes (Oceanix Biosciences Corporation, Hanover, Md., USA) were thawed; tissue Oceanix Biosciences Corporation; host or cells: human platelet membranes
T3 sequence (P31645 whole entry): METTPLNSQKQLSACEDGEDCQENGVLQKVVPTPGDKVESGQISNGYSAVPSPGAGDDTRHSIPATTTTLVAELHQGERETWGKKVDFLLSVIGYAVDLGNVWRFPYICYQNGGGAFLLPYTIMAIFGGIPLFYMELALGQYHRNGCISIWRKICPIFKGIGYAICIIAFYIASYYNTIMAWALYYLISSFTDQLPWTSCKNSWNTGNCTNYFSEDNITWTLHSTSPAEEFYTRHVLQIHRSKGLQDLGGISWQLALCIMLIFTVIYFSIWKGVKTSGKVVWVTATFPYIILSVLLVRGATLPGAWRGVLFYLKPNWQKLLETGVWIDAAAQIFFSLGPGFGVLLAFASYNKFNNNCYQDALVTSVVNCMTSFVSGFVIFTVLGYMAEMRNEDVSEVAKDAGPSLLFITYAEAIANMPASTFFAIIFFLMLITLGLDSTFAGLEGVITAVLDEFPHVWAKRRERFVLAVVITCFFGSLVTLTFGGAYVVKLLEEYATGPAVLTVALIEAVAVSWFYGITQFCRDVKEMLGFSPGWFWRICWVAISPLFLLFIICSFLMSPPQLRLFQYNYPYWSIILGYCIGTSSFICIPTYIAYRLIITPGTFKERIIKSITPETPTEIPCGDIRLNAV

[4] = [3H]raulwolscine 1 nM, membranes of CHO cells transfected with human α2A receptor
[5] = [3H]raulwolscine 1 nM, membranes of CHO cells transfected with human α2C receptor

Structure (SMILES) | IC50 [1, 4] [µM] | IC50 [2, 5] [µM] | IC50 [3] [µM] | IC50 [1] [µM] | IC50 [2] [µM]
O=C(Cn1ccnc(NC2CCN(CCOc3ccccc3)CC2)c1=O)NCC(c1ccccc1)c1ccccc1 [Compound 1-19] | 0.158 | 0.00501 | 3.16 | – | –
O=C(Cn1ccnc(NC2CCN(CCOc3ccccc3)CC2)c1=O)NCCCc1ccccc1 [Compound 1-17] | 0.316 | 0.0126 | 2.51 | – | –
CN(C(=O)Cn1ccnc(NC2CCN(CCOc3ccccc3)CC2)c1=O)c1ccccc1 [Compound 1-9] | 0.1 | 0.00316 | 3.98 | – | –
CN(C)CCCn1ccnc(NC2CCN(CCOc3ccccc3)CC2)c1=O [Compound 1-4] | 0.2 | 0.00398 | > 10 | – | –
O=c1c(NC2CCN(CCOc3ccccc3)CC2)nccn1-c1cccc(NCc2ccccc2)c1 [Compound 1-12] | 0.0501 | 0.00398 | 2.51 | – | –
O=C(Cn1ccnc(NC2CCN(CCOc3ccccc3)CC2)c1=O)N(CCN1CCCC1)Cc1ccc(F)cc1 [Compound 1-24] | 0.0158 | 0.000316 | 5.01 | – | –
O=C(Cn1ccnc(NC2CCN(CCOc3ccccc3)CC2)c1=O)Nc1ccc(F)cc1 [Compound 1-10] | 0.158 | 0.00398 | – | – | –
C#CCN(C)C(=O)Cn1ccnc(NC2CCN(CCOc3ccccc3)CC2)c1=O [Compound 1-7] | 0.251 | 0.0126 | > 10 | – | –
O=C(Cn1ccnc(NC2CCN(CCOc3ccccc3)CC2)c1=O)NCc1ccc(F)cc1 [Compound 1-14] | 0.251 | 0.00251 | 7.94 | – | –
NCCCn1ccnc(NC2CCN(CCOc3ccccc3)CC2)c1=O [Compound 1-1] | 0.126 | 0.00794 | > 10 | – | –
O=C(Cn1ccnc(NC2CCN(CCOc3ccccc3)CC2)c1=O)N1CCN(Cc2ccccc2)CC1 [Compound 2-12] | – | – | 6.31 | 0.2 | 0.00251
CN(Cc1ccccc1)C(=O)Cn1ccnc(NC2CCN(CCOc3ccccc3)CC2)c1=O [Compound 1-13] | 0.126 | 0.00398 | 5.01 | – | –
CN(C)CCn1ccnc(NC2CCN(CCOc3ccccc3)CC2)c1=O [Compound 1-3] | 0.158 | 0.02 | > 10 | – | –
NCc1ccc(Cn2ccnc(NC3CCN(CCOc4ccccc4)CC3)c2=O)cc1 [Compound 1-2] | 0.0158 | 0.00158 | 7.94 | – | –
O=C(Cn1ccnc(NC2CCN(CCOc3ccccc3)CC2)c1=O)N(CCN1CCCC1)Cc1ccccc1 [Compound 1-23] | 0.0316 | 0.000501 | – | – | –
CN(C)C(=O)Cn1ccnc(NC2CCN(CCOc3ccccc3)CC2)c1=O [Compound 1-5] | 0.501 | 0.0398 | > 10 | – | –
O=C(Cn1ccnc(NC2CCN(CCOc3ccccc3)CC2)c1=O)NCCc1ccccc1 [Compound 1-15] | 0.251 | 0.00316 | – | – | –

More lines, main results first:

IC50 [1, 4] [µM] | IC50 [2, 5] [µM] | IC50 [3] [µM] | Structure (SMILES) | IC50 [1] [µM] | IC50 [2] [µM]
0.00794 | 0.001 | 6.31 | O=c1c(NC2CCN(CCOc3ccccc3)CC2)nccn1-c1cccc(N2CCC(N3CCCC3)CC2)c1 [Compound 2-9] | – | –
0.158 | 0.0631 | 1.26 | NCc1ccc(Cn2ccnc(N3CCN(CCOc4ccc(F)cc4)CC3)c2=O)cc1 [Compound 7-1] | – | –
0.251 | 0.316 | 7.94 | O=c1c(N2CCN(CCOc3ccc(F)cc3)CC2)nccn1CC(c1ccccc1)c1ccccc1 [Compound 11-3] | – | –
0.158 | 0.00794 | 2.51 | O=c1c(NC2CCN(CCOc3ccccc3)CC2)nccn1Cc1ccccc1Br [Compound 4-1] | – | –
0.158 | 0.0158 | 6.31 | O=c1c(NC2CCN(CCOc3ccccc3)CC2)nccn1CCc1ccccc1 [Compound 4-4] | – | –
0.2 | 0.00794 | 2.51 | O=c1c(NC2CCN(CCOc3ccccc3)CC2)nccn1Cc1ccc2ccccc2n1 [Compound 6-3] | – | –
0.2 | 0.251 | > 10 | O=c1c(N2CCN(CCOc3ccc(F)cc3)CC2)nccn1Cc1ccco1 [Compound 12-1] | – | –
0.501 | 0.00794 | 1.26 | O=C1c2ccccc2C(=O)N1CC#CCn1ccnc(NC2CCN(CCOc3ccccc3)CC2)c1=O [Compound 2-16] | – | –
0.501 | 0.251 | > 10 | O=c1[nH]ccnc1N1CCN(CCOc2ccc(F)cc2)CC1 [Compound 13-1] | – | –
0.251 | 0.2 | 1.58 | O=c1c(N2CCN(CCOc3ccc(F)cc3)CC2)nccn1C/C=C/c1ccccc1 [Compound 11-4] | – | –
0.398 | 0.0398 | > 10 | O=c1[nH]ccnc1NC1CCN(CCOc2ccccc2)CC1 [Compound 5-1] | – | –
0.631 | 0.02 | > 10 | O=c1c(NC2CCN(CCOc3ccccc3)CC2)nccn1CCN1CCOCC1 [Compound 2-13] | – | –
0.126 | 0.126 | 2 | O=c1c(N2CCN(CCOc3ccc(F)cc3)CC2)nccn1Cc1ccc2ccccc2c1 [Compound 11-8] | – | –
0.1 | 0.2 | > 10 | O=c1c(N2CCN(CCOc3ccc(F)cc3)CC2)nccn1Cc1ccccc1 [Compound 11-1] | – | –
0.2 | 0.251 | 2.51 | O=c1c(N2CCN(CCOc3ccc(F)cc3)CC2)nccn1CCOc1ccccc1 [Compound 9-2] | – | –
0.1 | 0.02 | 0.794 | O=c1c(NC2CCN(CCOc3ccccc3)CC2)nccn1Cc1ccc(Br)cc1 [Compound 4-3] | – | –

IC50 [1, 4] [µM] | IC50 [2, 5] [µM] | IC50 [3] [µM] | Structure (SMILES) | IC50 [1] [µM] | IC50 [2] [µM]
0.1 | 0.0398 | 0.631 | O=C1c2ccccc2C(=O)N1CCCn1ccnc(N2CCN(CCOc3ccc(F)cc3)CC2)c1=O [Compound 8-2] | – | –
0.631 | 0.1 | 7.94 | O=c1c(N2CCN(CCOc3ccc(F)cc3)CC2)nccn1CCN1CCCCC1 [Compound 8-1] | – | –
0.158 | 0.158 | 0.794 | COc1ccc(-c2nnc(Cn3ccnc(N4CCN(CCOc5ccc(F)cc5)CC4)c3=O)o2)cc1 [Compound 12-4] | – | –
0.501 | 0.501 | > 10 | C=CCn1ccnc(N2CCN(CCOc3ccc(F)cc3)CC2)c1=O [Compound 13-5] | – | –
0.0794 | 0.02 | 0.794 | O=c1c(NC2CCN(CCOc3ccccc3)CC2)nccn1Cc1ccc2ccccc2c1 [Compound 4-7] | – | –
0.0398 | 0.01 | 5.01 | O=C(Cn1ccnc(NC2CCN(CCOc3ccccc3)CC2)c1=O)c1ccccc1 [Compound 4-6] | – | –
0.251 | 0.631 | 2 | O=c1c(N2CCN(CCOc3ccc(F)cc3)CC2)nccn1CCCc1ccccc1 [Compound 11-2] | – | –
0.398 | 0.251 | 2 | CC(C)(C)OC(=O)NCc1ccc(Cn2ccnc(N3CCN(CCOc4ccc(F)cc4)CC3)c2=O)cc1 [Compound 7-3] | – | –
0.158 | 0.158 | 3.98 | O=C(Cn1ccnc(N2CCN(CCOc3ccc(F)cc3)CC2)c1=O)c1ccccc1 [Compound 11-5] | – | –
0.2 | 0.02 | 2.51 | O=c1c(NC2CCN(CCOc3ccccc3)CC2)nccn1-c1ccc(N2CCCCC2)cc1 [Compound 2-4] | – | –
0.398 | 0.0398 | > 10 | O=c1c(NC2CCN(CCOc3ccccc3)CC2)nccn1Cc1ccncc1 [Compound 6-2] | – | –
0.1 | 0.001 | 3.98 | O=c1c(NC2CCN(CCOc3ccccc3)CC2)nccn1-c1ccc(CN2CCCCC2)cc1 [Compound 2-5] | – | –
0.631 | 0.398 | > 10 | CCCn1ccnc(N2CCN(CCOc3ccc(F)cc3)CC2)c1=O [Compound 13-2] | – | –
0.126 | 0.0316 | > 10 | CC(=O)Cn1ccnc(NC2CCN(CCOc3ccccc3)CC2)c1=O [Compound 5-4] | – | –
0.2 | 0.01 | – | CC(C)(C)C(=O)Cn1ccnc(NC2CCN(CCOc3ccccc3)CC2)c1=O [Compound 5-6] | – | –
0.1 | 0.00251 | – | O=c1c(NC2CCN(CCOc3ccccc3)CC2)nccn1CCN1CCCCC1 [Compound 2-1] | – | –
